Legend:
[1] = system: Human immunodeficiency virus 1; experiment: Antiviral activity against wild type HIV-1 IIIB infected in human MT4 cells assessed as protection against virus-induced cytopathic effect incubated for 5 days by MTT assay; assay type: functional, organism-based; conditions: Human immunodeficiency virus 1, IIIB, MT4, 120 h
[2] = Selectivity index, ratio of CC50 for cytotoxicity against human MT4 cells to EC50 for antiviral activity against wild type HIV-1 IIIB infected in human MT4 cells; assay type: toxicity, cell-based; conditions: read-out: Ratio CC50/EC50
[3] = Cytotoxicity against human MT4 cells assessed as reduction in cell viability incubated for 5 days by MTT assay; assay type: toxicity, cell-based; conditions: time 5 day
[4] = system: Human immunodeficiency virus 1; experiment: Antiviral activity against wild type HIV-1 IIIB harboring reverse transcriptase […] mutant infected in human MT4 cells assessed as protection against virus-induced cytopathic effect incubated for 5 days by MTT assay; assay type: functional, organism-based; conditions: Human immunodeficiency virus 1, IIIB, MT4, 120 h
[5] = Resistant factor, ratio of EC50 for antiviral activity against HIV-1 IIIB harboring reverse transcriptase […] mutant to EC50 for antiviral activity against wild type HIV-1 IIIB; assay type: functional
[6] = system: Human immunodeficiency virus 1; experiment: Antiviral activity against wild type HIV-1 IIIB harboring reverse transcriptase K103N mutant infected in human MT4 cells assessed as protection against virus-induced cytopathic effect incubated for 5 days by MTT assay; assay type: functional, organism-based; conditions: Human immunodeficiency virus 1, IIIB, MT4, 120 h
[7] = Resistant factor, ratio of EC50 for antiviral activity against HIV-1 IIIB harboring reverse transcriptase K103N mutant to EC50 for antiviral activity against wild type HIV-1 IIIB; assay type: functional
[8] = system: Human immunodeficiency virus 1; experiment: Antiviral activity against wild type HIV-1 IIIB harboring reverse transcriptase Y181C mutant infected in human MT4 cells assessed as protection against virus-induced cytopathic effect incubated for 5 days by MTT assay; assay type: functional, organism-based; conditions: Human immunodeficiency virus 1, IIIB, MT4, 120 h
[9] = Resistant factor, ratio of EC50 for antiviral activity against HIV-1 IIIB harboring reverse transcriptase Y181C mutant to EC50 for antiviral activity against wild type HIV-1 IIIB; assay type: functional
[10] = system: Human immunodeficiency virus 1; experiment: Antiviral activity against wild type HIV-1 IIIB harboring reverse transcriptase Y188L mutant infected in human MT4 cells assessed as protection against virus-induced cytopathic effect incubated for 5 days by MTT assay; assay type: functional, organism-based; conditions: Human immunodeficiency virus 1, IIIB, MT4, 120 h
[11] = Resistant factor, ratio of EC50 for antiviral activity against HIV-1 IIIB harboring reverse transcriptase Y188L mutant to EC50 for antiviral activity against wild type HIV-1 IIIB; assay type: functional
[12] = system: Human immunodeficiency virus 1; experiment: Antiviral activity against wild type HIV-1 IIIB harboring reverse transcriptase E138K mutant infected in human MT4 cells assessed as protection against virus-induced cytopathic effect incubated for 5 days by MTT assay; assay type: functional, organism-based; conditions: Human immunodeficiency virus 1, IIIB, MT4, 120 h
[13] = Resistant factor, ratio of EC50 for antiviral activity against HIV-1 IIIB harboring reverse transcriptase E138K mutant to EC50 for antiviral activity against wild type HIV-1 IIIB; assay type: functional
[14] = target: Human immunodeficiency virus type 1 reverse transcriptase (Human immunodeficiency virus 1, UniProt Q72547); experiment: Inhibition of recombinant wild type HIV-1 reverse transcriptase using DNA/RNA as substrate incubated for 40 mins by Pico-green dye based spectrofluorometric analysis
Cytochrome P450 2C19 = Cytochrome P450 2C19 (Homo sapiens, UniProt P33261); experiment: Inhibition of CYP2C19 in human liver microsomes using S-mephenytoin as substrate incubated for 15 to 45 mins in presence of NADPH; assay type: ADME, Microsome
Cytochrome P450 2C19, sequence (P33261 whole entry): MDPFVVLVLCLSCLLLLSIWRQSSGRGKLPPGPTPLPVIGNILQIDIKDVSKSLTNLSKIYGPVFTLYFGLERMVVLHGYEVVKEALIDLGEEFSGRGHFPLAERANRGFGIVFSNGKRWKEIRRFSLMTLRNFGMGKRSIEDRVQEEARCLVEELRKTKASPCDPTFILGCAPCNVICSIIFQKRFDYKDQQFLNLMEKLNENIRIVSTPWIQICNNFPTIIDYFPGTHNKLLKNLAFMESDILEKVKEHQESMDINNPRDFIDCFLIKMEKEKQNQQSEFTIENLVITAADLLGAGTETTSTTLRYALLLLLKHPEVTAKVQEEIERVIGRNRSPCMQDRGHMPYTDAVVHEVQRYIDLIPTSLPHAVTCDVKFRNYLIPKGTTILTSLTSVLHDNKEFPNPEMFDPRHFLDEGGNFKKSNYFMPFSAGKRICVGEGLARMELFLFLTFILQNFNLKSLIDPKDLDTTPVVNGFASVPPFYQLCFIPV

Row | SMILES | EC50 [1] [nM] | selectivity ratio [2] | CC50 at 120 h [3] [nM] | EC50 [4] [nM] | Ratio EC50 [5] | EC50 [6] [nM] | Ratio EC50 [7] | EC50 [8] [nM] | Ratio EC50 [9] | EC50 [10] [nM] | Ratio EC50 [11] | EC50 [12] [nM] | Ratio EC50 [13] | IC50 [14] [nM] | IC50 (Cytochrome P450 2C19) [nM]
1 | Cc1cc(-c2ccc(C#N)cc2)cc(C)c1Oc1nc(Nc2ccc(C#N)cc2)ncc1C(=O)NCCO | 3 | > 11900 | > 39600 | 13 | 3.9 | 6 | 1.8 | 29 | 8.8 | 44 | 13 | 6 | 1.8 | 55 | 
2 | CCONC(=O)c1cnc(Nc2ccc(C#N)cc2)nc1Oc1c(C)cc(-c2ccc(C#N)cc2)cc1C | 5 | > 44200 | > 248000 | 34 | 6.1 | 12 | 2.1 | 46 | 8.2 | 138 | 25 | 7 | 1.3 | 94 | 
3 | COCCNC(=O)c1cnc(Nc2ccc(C#N)cc2)nc1Oc1c(C)cc(-c2ccc(C#N)cc2)cc1C | 5 | 28100 | 161000 | 74 | 13 | 33 | 5.8 | 58 | 10 | 190 | 33 | 20 | 3.5 | 128 | 
4 | C#CCNC(=O)c1cnc(Nc2ccc(C#N)cc2)nc1Oc1c(C)cc(-c2ccc(C#N)cc2)cc1C | 5 | 25700 | 145000 | 16 | 2.9 | 9 | 1.6 | 31 | 5.5 | 59 | 11 | 13 | 2.3 | 72 | 
5 | Cc1cc(-c2ccc(C#N)cc2)cc(C)c1Oc1nc(Nc2ccc(C#N)cc2)ncc1C(=O)NC1CCCCC1 | 174 | > 1320 | > 230000 | 1680 | 9.7 | 1330 | 7.6 | 4460 | 26 | 5140 | 30 | 817 | 4.7 | 329 | 
6 | C=C(C)[C@@H]1CCC2=CC(=O)C[C@@H](C)[C@]2(C)C1 [NOOTKATONE] |  |  |  |  |  |  |  |  |  |  |  |  |  |  | 1570

From ChEMBL document CHEMBL5380843 (J Med Chem, 2023)
